Measured values from US5620959A, “Bombesin antagonists” (Glaxo Wellcome Inc., priority 1990, dated 1997).

Target: 3T3 ROZ cells (Mus musculus, UniProt P21729)
Test: Inhibition of bombesin-stimulated mitogenesis (3H-thymidine uptake) of quiescent 3T3 ROZ cells
Assay type: cell-based
Conditions: compared with the peptide from the other stereoisomer at the hydroxy position; test not named at b235
Description: Antagonistic activity was measured by inhibition of the mitogenic stimulation of quiescent 3T3 ROZ cells. […] Cells were incubated for eighteen hours with 10 ng/mL of BN either alone or in the presence of an antagonist. Cells were then pulsed-labeled for 2 hours with ^3 H-thymidine and washed. The incorporated ^3 H was then counted.
Potency of antagonists was measured by inhibition of this maximum response down to baseline level. IC50 values were determined from titration curves.

Sequence of 3T3 ROZ cells (P21729 whole entry): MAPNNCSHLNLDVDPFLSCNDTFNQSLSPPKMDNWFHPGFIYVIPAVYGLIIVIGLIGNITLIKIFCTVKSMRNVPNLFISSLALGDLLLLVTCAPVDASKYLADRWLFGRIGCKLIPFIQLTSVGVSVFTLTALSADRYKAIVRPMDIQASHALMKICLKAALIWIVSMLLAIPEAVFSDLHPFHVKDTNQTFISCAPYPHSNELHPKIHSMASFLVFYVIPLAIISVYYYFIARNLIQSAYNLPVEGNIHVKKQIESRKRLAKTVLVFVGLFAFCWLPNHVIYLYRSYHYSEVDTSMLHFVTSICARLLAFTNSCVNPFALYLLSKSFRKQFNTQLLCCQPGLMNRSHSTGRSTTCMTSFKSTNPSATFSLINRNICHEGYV

SMILES: CC(C)[C@H](NC(=O)[C@H](C)NC(=O)[C@H](Cc1c[nH]c2ccccc12)NC(=O)[C@H](Cc1c[nH]cn1)NC(=O)CCc1ccccc1)C(=O)N[C@H](C)C(=O)N[C@@H](Cc1c[nH]cn1)C(=O)N1CCC[C@@H]1C(O)CC(=O)N[C@@H](Cc1ccccc1)C(N)=O (single isomer, unassigned) [N--((3-Phenyl)Propionyl)--HisTrpAlaVal D--AlaHis(3-(2-Pyrrolidinyl-3Hydroxy)Propionyl)--Phe--NH2]
- relative activity of the two peptides made from the two hydroxy stereoisomers: the more active of the two
